Experimental data published in patent US7943296B2, “Methods of screening using a natriuretic peptide receptor” (Oregon Health & Science University, priority 2005, dated 2011).
Positions count from the first letter of the chain named.

Assays:
α-SMA promoter [1] = assay: α-SMA-luciferase reporter in neonatal rat CFs with daily TGF-β1, model of NP resistance; assay type: cell-based
Protocol: Neonatal rat CFs were transfected with an α-SMA-luciferase reporter construct driven by TGF-β1 induction of the α-SMA promoter. After 24 hours, cells were treated daily with […] TGF-β1 for up to 4 days. On each successive day, some of the cells were treated with NP (ANP, 100 nM), and luciferase activity measured.

α-SMA promoter [2] = assay: TGF-β1-induced α-SMA-luciferase reporter in CFs transfected with pcDNA3-sNRF or control vector; assay type: cell-based; conditions: for inhibitory effect on sNRF action (loss of NP inhibition of α-SMA-luciferase): sNRF-transfected CFs, TGF-β1 + ANP, 24 hours
Protocol: TGF-β1 signaling is required for angiotensin effects in the heart, and NPs oppose TGF-β1 effects in CFs. […] CFs were transiently transfected with the α-SMA-luciferase vector and pcDNA3 control vector or pcDNA3-sNRF, then treated for 24 hours with TGF-β1, ANP, and the angiotensin-converting enzyme inhibitor captopril (CAP) or the angiotensin receptor-1 blocker losartan (LOS).

[3] = system: cardiac fibroblasts (CFs); assay: bFGF-induced α-SMA protein expression in CFs (Western blot); assay type: cell-based, rat; conditions: cells with insertless vector; 10 ng/ml FGF 48 hours; 100 nM ANP
Protocol: (§1) NP's ability to inhibit growth factor-induced CF differentiation into myofibroblasts was determined as follows. CFs were transiently transfected with insertless pcDNA3 vector or pcDNA3 encoding sNRF^(806-900) (see Example 7). The transfected CFs were then treated for 48 hours with 10 ng/ml basic fibroblast growth factor (FGF; Sigma-Aldrich #F0291) in the presence or absence of 100 nM ANP. Alpha-smooth muscle actin (α-SMA) protein expression, the principal marker of CF differentiation, was assessed by Western blotting and immunofluorescence microscopy. Vimentin staining was used as a loading control because it is expressed equally in fibroblasts and transdifferentiated myofibroblasts.

[4] = system: cardiac fibroblasts (CFs); assay: Vimentin localisation in CFs by immunofluorescence microscopy; assay type: cell-based, rat; conditions: in the presence of ANP
Protocol: as §1
For the immunofluorescence microscopy, slide wells were treated as described in Example 7 and incubated with anti-α-SMA and anti-vimentin antibody as well as phalloidin to stain for actin. Briefly, cells were rinsed twice with phosphate-buffered saline (PBS) and fixed with 3.7% formaldehyde in PBS for 10 minutes. After fixation, cells were rinsed with PBS and permeabilized with 0.3% Triton X-100 in PBS for 10 minutes and blocked for 1 hour in 1% horse serum, 0.2% bovine serum albumin in PBS. Cells were then incubated with primary α-SMA antibody (ABCAM ab7817) and primary vimentin antibody (ABCAM ab7783) diluted in blocking solution for 1 hour and washed three times with blocking solution for 5 minutes. […]

PKG [5] = molecular target: T1, PKG (Rattus norvegicus, UniProt A9LNM8); assay: Co-immunoprecipitation of PKG with FLAG-tagged NPRA fragments in primary CFs; assay type: binding; conditions: 5'-FLAG-tagged fragment in transfected CFs, anti-FLAG M2 affinity gel
T1 construct: endogenous in cells; host or cells: primary neonatal rat cardiac fibroblasts transfected with 5'-FLAG sNRF fragments
T1 sequence (A9LNM8 1-671): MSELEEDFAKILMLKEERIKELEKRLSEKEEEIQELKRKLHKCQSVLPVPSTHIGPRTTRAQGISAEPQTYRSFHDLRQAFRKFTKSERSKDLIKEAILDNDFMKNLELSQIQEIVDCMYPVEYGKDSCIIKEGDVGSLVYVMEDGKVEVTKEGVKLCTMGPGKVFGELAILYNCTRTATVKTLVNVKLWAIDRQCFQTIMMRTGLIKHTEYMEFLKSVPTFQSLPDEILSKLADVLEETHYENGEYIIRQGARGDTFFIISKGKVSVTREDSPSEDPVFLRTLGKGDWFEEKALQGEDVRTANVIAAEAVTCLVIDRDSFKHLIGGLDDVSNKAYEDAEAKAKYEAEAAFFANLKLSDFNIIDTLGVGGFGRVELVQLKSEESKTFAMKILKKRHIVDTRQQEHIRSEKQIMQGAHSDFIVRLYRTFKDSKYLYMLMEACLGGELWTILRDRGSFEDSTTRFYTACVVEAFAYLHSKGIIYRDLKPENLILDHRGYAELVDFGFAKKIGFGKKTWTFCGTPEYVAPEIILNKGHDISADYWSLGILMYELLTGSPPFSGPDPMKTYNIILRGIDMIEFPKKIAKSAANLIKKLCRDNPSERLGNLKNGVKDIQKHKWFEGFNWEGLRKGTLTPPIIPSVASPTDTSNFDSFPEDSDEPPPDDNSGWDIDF
Protocol: Neonatal rat ventricular fibroblasts (CFs) were cultured from 1 to 2-day-old Harlan Sprague-Dawley rats as described previously (Simpson, Circulation Res. 56:884-94, 1985). Briefly, ventricles were dissected free from atria and quartered. Following dissociation in ADS buffer containing 1.5 mg/ml trypsin (Gibco #27250-018) and 1% DNase solution (2 mg/ml DNase type II, 150 mM NaCl) with serum neutralization the collected cells were pre-incubated in media at 37° C. for 90 minutes to allow CF attachment to the bottom of culture dishes. CFs were incubated in plating media for 48 hours, divided into 6-well culture plates or dual-well chamberslides, and grown to 50% confluency in DMEM with 10% FBS prior to use.
CFs were transiently transfected with nucleic acid molecules encoding sNRF^(806-1061), sNRF^(806-900), or sNRF^(806-860) using routine methods. Briefly, PCR-generated, 5′-FLAG epitope-tagged sNRFs were subcloned into the BamHI and EcoRI sites of pCDNA3 (Invitrogen) and sequenced to verify construction accuracy. […]
The ability of the NPRA fragments to immunoprecipitate PKG was determined in the primary CF cells transfected with the 5′-FLAG epitope-tagged NPRA fragments as follows. […] Bound antibody was detected with chemiluminescent substrate (Western Lightning ECL, PerkinElmer Life Sciences).

PKG [6] = molecular target: T2, PKG (Homo sapiens, UniProt Q13976); assay: Immunofluorescence of NP-induced PKG membrane translocation in HEK-NPRA cells; assay type: cell-based; conditions: fragment expressed in HEK-NPRA cells; ANP 100 nM 15 minutes
T2 construct: endogenous in cells; host or cells: HEK293 stably over-expressing FLAG-NPRA (HEK-NPRA)
T2 sequence (Q13976 1-671): T1 sequence (A9LNM8 1-671) with D227E, K265T, S267N, E291G, E499K, S586N, S656N
Protocol: HEK-NPRA cells were transiently transfected with insertless pcDNA3 plasmid vector or pcDNA3-sNRF^(806-1061). All slide wells were treated with atrial natriuretic peptide (ANP) (100 nM; Sigma-Aldrich #A1663) for 15 minutes. Cells were decorated with monoclonal flag antibody specific for FLAG-NPRA (red) and polyclonal PKG antibody (green). Overlapping regions of PKG and NPRA appeared yellow-orange. PKG staining was absent when anti-PKG antibody was pre-adsorbed with recombinant PKG protein (Calbiochem).

**Q.** How did the “expression of the luciferase reporter construct driven by TGF-β1 induction of the α-SMA promoter” value (α-SMA promoter [1]; NP (ANP, 100 nM) 24 hours, 100 nM TGF-β1) turn out when `CC[C@H](C)[C@@H]1NC(=O)[C@H](CCCNC(=N)N)NC(=O)[C@H](CC(=O)O)NC(=O)[C@H](CCSC)NC(=O)[C@H](CCCNC(=N)N)NC(=O)CNC(=O)CNC(=O)[C@H](Cc2ccccc2)NC(=O)[C@@H](NC(=O)[C@H](CO)NC(=O)[C@H](CO)NC(=O)[C@H](CCCNC(=N)N)NC(=O)[C@H](CCCNC(=N)N)NC(=O)[C@H](CC(C)C)NC(=O)[C@@H](N)CO)CSSC[C@@H](C(=O)N[C@@H](CC(N)=O)C(=O)N[C@@H](CO)C(=O)N[C@@H](Cc2ccccc2)C(=O)N[C@@H](CCCNC(=N)N)C(=O)N[C@@H](Cc2ccc(O)cc2)C(=O)O)NC(=O)CNC(=O)[C@H](CC(C)C)NC(=O)CNC(=O)[C@H](CO)NC(=O)[C@H](CCC(N)=O)NC(=O)[C@H](C)NC(=O)CNC1=O` [ANP, atrial natriuretic peptide] was run?
**A.** almost completely inhibited

**Q.** And the “NP's inhibitory effect on TGF-β1-induced α-SMA-luciferase” value (α-SMA promoter [1]; progressively longer periods of NP treatment, up to 4 days)?
**A.** steady decline in NP's inhibitory effects

**Q.** And the “TGF-β1-induced α-SMA-luciferase expression” value (α-SMA promoter [2]; cells that do not over-express sNRF)?
**A.** inhibits TGF-β1-induced α-SMA-luciferase expression

**Q.** What about the “bFGF-induced α-SMA protein expression” value [3] of the same molecule?
**A.** inhibited bFGF-induced α-SMA protein expression

**Q.** And the “nuclear to cytosolic translocation of vimentin” value [4]?
**A.** nuclear to cytosolic translocation of vimentin was observed

**Q.** Which results are given for “sNRF^(806-1061): intracellular NPRA fragment, residues 806-1061, with hinge domain and C-terminal guanylyl cyclase domain; expressed FLAG-tagged”?
**A.** co-immunoprecipitation of PKG (PKG [5]): co-immunoprecipitated PKG; translocation of cytosolic PKG to the plasma membrane (PKG [6]): inhibited translocation of cytosolic PKG to the plasma membrane

**Q.** Which “NP-inhibition of TGF-β1 induction of α-SMA-luciferase” value (α-SMA promoter [2]; non-sNRF transfected cells) does the source give for `CCCCc1nc(Cl)c(CO)n1Cc1ccc(-c2ccccc2-c2nn[nH]n2)cc1` [losartan] here?
**A.** blocks NP-inhibition of TGF-β1 induction of α-SMA-luciferase

**Q.** What about the “inhibitory effect on sNRF action (loss of NP inhibition of α-SMA-luciferase)” value (α-SMA promoter [2]) of the same molecule?
**A.** no significant inhibitory effect

**Q.** How did the “inhibitory effect on sNRF action (loss of NP inhibition of α-SMA-luciferase)” value (α-SMA promoter [2]) turn out when `C[C@H](CS)C(=O)N1CCC[C@H]1C(=O)O` [captopril] was run?
**A.** no significant inhibitory effect
